Results published in article PMC11628833 (Acta Pharmaceutica Sinica. B, 2024).

Columns and labels:
TLR1/2/6 = assay: Specificity test in HEK-Blue TLR-overexpressing cells, TLR1/2/6; format: cell-based, human; conditions: 5 μM S-1, HEK-Blue TLR cells, TLR-specific agonists
TLR3 = target: T1, TLR3 (Homo sapiens, UniProt O15455); assay: Specificity test in HEK-Blue TLR-overexpressing cells, TLR3; format: cell-based; conditions: 5 μM S-1, HEK-Blue TLR cells, TLR-specific agonist
T1 sequence (O15455 24-904): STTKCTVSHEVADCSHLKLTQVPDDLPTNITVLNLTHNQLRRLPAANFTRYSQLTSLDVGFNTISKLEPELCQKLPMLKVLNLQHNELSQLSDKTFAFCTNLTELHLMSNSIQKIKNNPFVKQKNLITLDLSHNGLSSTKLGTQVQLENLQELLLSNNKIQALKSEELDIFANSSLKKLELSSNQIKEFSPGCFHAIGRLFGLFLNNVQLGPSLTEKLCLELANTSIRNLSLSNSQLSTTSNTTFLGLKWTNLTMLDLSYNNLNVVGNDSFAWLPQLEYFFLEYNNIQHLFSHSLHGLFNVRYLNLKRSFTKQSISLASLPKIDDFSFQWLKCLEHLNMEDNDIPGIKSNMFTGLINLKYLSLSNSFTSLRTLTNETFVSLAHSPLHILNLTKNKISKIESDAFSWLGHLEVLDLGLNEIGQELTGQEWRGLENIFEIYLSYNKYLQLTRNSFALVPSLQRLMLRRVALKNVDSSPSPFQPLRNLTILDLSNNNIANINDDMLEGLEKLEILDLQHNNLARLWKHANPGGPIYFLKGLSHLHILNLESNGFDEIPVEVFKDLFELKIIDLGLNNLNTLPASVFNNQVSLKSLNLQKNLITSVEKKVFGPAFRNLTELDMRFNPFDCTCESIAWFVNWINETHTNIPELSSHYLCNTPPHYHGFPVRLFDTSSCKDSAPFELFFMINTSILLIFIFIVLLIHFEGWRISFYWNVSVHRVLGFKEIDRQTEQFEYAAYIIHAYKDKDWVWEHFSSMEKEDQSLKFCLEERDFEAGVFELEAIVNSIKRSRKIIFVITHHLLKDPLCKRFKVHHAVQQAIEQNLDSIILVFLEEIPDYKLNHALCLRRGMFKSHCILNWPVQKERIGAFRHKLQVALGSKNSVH

TLR5 = TLR5 (Homo sapiens, UniProt O60602); assay: Specificity test in HEK-Blue TLR-overexpressing cells, TLR5; format: cell-based; conditions: 5 μM S-1, HEK-Blue TLR cells, TLR-specific agonist
TLR9 = target: T2, TLR9 (Homo sapiens, UniProt Q9NR96); assay: Specificity test in HEK-Blue TLR-overexpressing cells, TLR9; format: cell-based; conditions: 5 μM S-1, HEK-Blue TLR cells, TLR-specific agonist
T2 sequence (Q9NR96 26-1032): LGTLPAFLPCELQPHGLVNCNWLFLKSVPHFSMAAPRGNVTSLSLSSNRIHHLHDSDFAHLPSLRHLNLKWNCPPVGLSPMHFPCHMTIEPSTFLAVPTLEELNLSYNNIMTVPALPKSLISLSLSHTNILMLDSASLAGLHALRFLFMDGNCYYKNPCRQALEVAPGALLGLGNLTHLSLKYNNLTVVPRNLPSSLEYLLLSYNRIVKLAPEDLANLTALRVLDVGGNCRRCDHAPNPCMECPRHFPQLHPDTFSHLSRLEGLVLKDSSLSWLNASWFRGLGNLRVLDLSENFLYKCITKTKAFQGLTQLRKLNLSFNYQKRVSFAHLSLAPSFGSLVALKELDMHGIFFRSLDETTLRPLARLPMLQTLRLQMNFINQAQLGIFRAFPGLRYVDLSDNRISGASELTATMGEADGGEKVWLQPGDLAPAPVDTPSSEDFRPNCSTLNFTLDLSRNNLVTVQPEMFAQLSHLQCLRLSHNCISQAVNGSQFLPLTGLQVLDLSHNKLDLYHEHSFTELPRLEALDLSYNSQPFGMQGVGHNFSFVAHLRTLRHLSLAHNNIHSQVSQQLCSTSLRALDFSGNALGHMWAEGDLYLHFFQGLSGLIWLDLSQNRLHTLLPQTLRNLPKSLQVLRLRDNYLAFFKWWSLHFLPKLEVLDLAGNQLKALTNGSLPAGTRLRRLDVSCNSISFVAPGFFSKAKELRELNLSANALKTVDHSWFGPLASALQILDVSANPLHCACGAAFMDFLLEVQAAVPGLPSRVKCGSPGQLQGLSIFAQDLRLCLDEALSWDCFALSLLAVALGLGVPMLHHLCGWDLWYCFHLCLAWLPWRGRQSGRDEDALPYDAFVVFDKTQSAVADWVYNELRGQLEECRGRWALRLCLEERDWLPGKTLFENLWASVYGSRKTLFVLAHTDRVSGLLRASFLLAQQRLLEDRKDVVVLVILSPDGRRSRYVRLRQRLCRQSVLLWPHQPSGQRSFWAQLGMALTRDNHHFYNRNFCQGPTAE

TLR5, sequence (O60602 21-858): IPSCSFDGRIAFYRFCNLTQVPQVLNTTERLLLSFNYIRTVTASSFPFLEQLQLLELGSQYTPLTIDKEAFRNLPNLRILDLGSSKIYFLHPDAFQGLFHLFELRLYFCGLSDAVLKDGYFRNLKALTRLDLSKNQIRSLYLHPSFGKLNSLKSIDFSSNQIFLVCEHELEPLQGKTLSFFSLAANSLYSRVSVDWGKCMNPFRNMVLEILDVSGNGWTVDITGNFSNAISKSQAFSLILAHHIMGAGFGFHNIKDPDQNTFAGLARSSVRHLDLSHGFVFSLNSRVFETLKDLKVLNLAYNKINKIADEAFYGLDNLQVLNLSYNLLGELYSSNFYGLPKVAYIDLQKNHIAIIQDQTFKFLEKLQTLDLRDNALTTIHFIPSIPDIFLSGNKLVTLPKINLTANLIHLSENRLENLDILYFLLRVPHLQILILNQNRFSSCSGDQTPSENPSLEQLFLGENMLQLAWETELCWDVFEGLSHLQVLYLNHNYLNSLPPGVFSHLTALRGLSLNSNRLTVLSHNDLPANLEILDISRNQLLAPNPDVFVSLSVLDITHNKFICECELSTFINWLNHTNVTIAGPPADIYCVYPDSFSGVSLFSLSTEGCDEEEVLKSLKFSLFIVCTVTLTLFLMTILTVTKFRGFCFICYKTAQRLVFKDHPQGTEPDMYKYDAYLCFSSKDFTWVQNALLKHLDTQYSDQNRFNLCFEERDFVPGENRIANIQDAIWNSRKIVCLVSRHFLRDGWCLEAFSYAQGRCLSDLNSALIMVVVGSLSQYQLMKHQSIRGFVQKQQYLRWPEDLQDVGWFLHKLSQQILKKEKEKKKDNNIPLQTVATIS

O=C(c1ccc(Cl)cc1)N1CCN(c2ccc([N+](=O)[O-])c3ncccc23)CC1 [Compound S1]
no obvious inhibition: inhibition of TLR1/2/6 (TLR1/2/6) | inhibition of TLR3 (TLR3) | inhibition of TLR5 (TLR5) | inhibition of TLR9 (TLR9)
